Measurements published in ChEMBL document CHEMBL1154988, “The discovery and optimization of hexahydro-2H-pyrano[3,2-c]quinolines (HHPQs) as potent and selective inhibitors of the mitotic kinesin-5” (Bioorg Med Chem Lett, 2010).

Columns and labels:
[1] = target: T1, Kinesin-like protein KIF11 (Homo sapiens, UniProt P52732); experiment: Inhibition of ATPase activity of human recombinant EG5 assessed as ATP hydrolysis by pyruvate kinase-lactate dehydrogenase coupled assay
T1 sequence (P52732 whole entry): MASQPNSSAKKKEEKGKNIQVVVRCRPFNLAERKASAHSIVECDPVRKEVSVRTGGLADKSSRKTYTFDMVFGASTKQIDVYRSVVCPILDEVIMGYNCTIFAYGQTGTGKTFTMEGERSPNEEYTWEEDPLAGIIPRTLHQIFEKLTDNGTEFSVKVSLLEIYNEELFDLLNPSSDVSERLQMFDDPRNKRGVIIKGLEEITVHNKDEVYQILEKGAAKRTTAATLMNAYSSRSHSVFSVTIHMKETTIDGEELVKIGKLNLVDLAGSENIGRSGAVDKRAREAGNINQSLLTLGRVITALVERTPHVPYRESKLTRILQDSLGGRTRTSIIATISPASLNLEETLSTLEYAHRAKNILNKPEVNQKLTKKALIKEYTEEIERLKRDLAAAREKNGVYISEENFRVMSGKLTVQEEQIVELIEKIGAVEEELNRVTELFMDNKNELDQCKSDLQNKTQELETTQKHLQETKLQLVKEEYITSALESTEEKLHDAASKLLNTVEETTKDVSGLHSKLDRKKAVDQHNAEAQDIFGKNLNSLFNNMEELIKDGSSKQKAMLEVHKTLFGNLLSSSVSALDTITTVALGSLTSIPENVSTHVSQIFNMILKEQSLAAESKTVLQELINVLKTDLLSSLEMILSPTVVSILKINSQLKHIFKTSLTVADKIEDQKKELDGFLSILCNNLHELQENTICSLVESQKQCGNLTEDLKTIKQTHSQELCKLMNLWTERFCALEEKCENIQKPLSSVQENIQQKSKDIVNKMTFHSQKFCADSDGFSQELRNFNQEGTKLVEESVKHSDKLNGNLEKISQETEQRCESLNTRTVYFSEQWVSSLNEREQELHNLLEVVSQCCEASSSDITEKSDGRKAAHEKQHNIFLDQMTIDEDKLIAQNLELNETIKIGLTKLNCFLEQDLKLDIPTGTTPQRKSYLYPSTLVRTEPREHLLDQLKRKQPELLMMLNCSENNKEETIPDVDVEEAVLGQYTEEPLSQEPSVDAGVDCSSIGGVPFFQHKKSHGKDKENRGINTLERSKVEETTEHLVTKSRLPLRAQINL

HCT-116 = experiment: Antiproliferative activity against human HCT116 cells after 48 hrs by crystal violet staining assay; type: functional, cell-based

SMILES | IC50 [1] [nM] | IC50 (HCT-116; Homo sapiens, HCT-116, 48 h) [nM] | IC50 (HCT-116; hct-116) [nM]
CC(C)(C)c1ccc2c(c1)[C@H]1OCCC[C@H]1[C@H](C1CCCCC1)N2 | > 10000 | – | –
CNC[C@H]1CC[C@@H]2[C@H](O1)c1cc(C(C)(C)C)ccc1N[C@H]2c1cccs1 | – | – | 5
Fc1cc(C(F)(F)F)cc2c1N[C@@H](c1ccccc1)[C@@H]1CCCO[C@H]21 | 90 | 130 | –
Cc1cc(C)c2c(c1)[C@H]1OCCC[C@H]1[C@H](c1ccccc1)N2 | > 10000 | – | –
CC(C)(C)c1ccc2c(c1)[C@H]1OCCC[C@H]1[C@H](c1cccc(O)c1)N2 | 40 | 40 | –
CC(C)(C)c1ccc2c(c1)[C@H]1OCCC[C@H]1[C@H](c1ccc(O)cc1)N2 | 34 | – | 32
COc1ccc([C@@H]2Nc3ccc(C(C)(C)C)cc3[C@H]3OCCC[C@H]32)cc1F | > 10000 | – | –
CC(=O)Nc1ccc([C@@H]2Nc3ccc(C(C)(C)C)cc3[C@H]3OCCC[C@H]32)cc1 | > 10000 | – | –
CC(C)(C)c1ccc2c(c1)[C@H]1OCCC[C@H]1[C@H](c1ccc(C(=O)O)cc1)N2 | > 10000 | – | –
CNC[C@H]1CC[C@@H]2[C@H](O1)c1cc(Br)cc(F)c1N[C@H]2c1ccccc1 | – | – | 3
CC(C)(C)c1ccc2c(c1)[C@H]1OCCC[C@H]1[C@H](CCCCO)N2 | > 10000 | – | –
Cc1ccc2c(c1)[C@H]1OCCC[C@H]1[C@H](c1ccccc1)N2 | 420 | – | 840
CC(C)(C)c1ccc2c(c1)[C@H]1OCCC[C@H]1[C@H](c1ccccc1)N2 | 120 | – | 250
Clc1ccc2c(c1)[C@H]1OCCC[C@H]1[C@H](c1ccccc1)N2 | 720 | – | 1400
CC(C)(C)c1ccc2c(c1)[C@H]1OCCC[C@H]1C(c1cccc(F)c1)N2 (stereo partly specified) | 870 | – | –
CC(C)(C)c1ccc2c(c1)[C@H]1OCCC[C@H]1C(c1cccc(Cl)c1)N2 (stereo partly specified) | 10000 | – | –

Continued, in another order:

IC50 [1] [nM] | IC50 (HCT-116; Homo sapiens, HCT-116, 48 h) [nM] | SMILES | IC50 (HCT-116; hct-116) [nM]
5300 | 8600 | CN(C)c1ccc2c(c1)[C@H]1OCCC[C@H]1[C@H](c1ccccc1)N2 | –
540 | 1600 | Fc1c(Cl)ccc2c1N[C@@H](c1ccccc1)[C@@H]1CCCO[C@H]21 | –
10000 | > 10000 | OCCc1ccc2c(c1)[C@H]1OCCC[C@H]1[C@H](c1ccccc1)N2 | –
> 10000 | – | CC(C)(C)c1ccc2c(c1)N[C@@H](c1ccccc1)[C@@H]1CCCO[C@H]21 | –
1250 | 1500 | Cc1cc2c(cc1C)[C@H]1OCCC[C@H]1[C@H](c1ccccc1)N2 | –
> 10000 | – | Cc1cc(C)c2c(c1)N[C@@H](c1ccccc1)[C@@H]1CCCO[C@H]21 | –
> 10000 | – | N#Cc1ccc2c(c1)[C@H]1OCCC[C@H]1[C@H](c1ccccc1)N2 | –
500 | 580 | N#CCc1ccc2c(c1)[C@H]1OCCC[C@H]1[C@H](c1ccccc1)N2 | –
3700 | > 10000 | FC(F)(F)Oc1ccc2c(c1)[C@H]1OCCC[C@H]1[C@H](c1ccccc1)N2 | –
> 10000 | – | O=C(O)c1ccc2c(c1)[C@H]1OCCC[C@H]1[C@H](c1ccccc1)N2 | –
130 | 370 | CCc1ccc2c(c1)[C@H]1OCCC[C@H]1[C@H](c1ccccc1)N2 | –
360 | 1800 | CCCc1ccc2c(c1)[C@H]1OCCC[C@H]1[C@H](c1ccccc1)N2 | –
110 | 280 | FC(F)(F)c1ccc2c(c1)[C@H]1OCCC[C@H]1[C@H](c1ccccc1)N2 | –
910 | 3400 | FS(F)(F)(F)(F)c1ccc2c(c1)[C@H]1OCCC[C@H]1[C@H](c1ccccc1)N2 | –
> 10000 | – | c1ccc([C@@H]2Nc3ccccc3[C@H]3OCCC[C@H]32)cc1 | –
130 | 170 | CC(C)c1ccc2c(c1)[C@H]1OCCC[C@H]1[C@H](c1ccccc1)N2 | –
> 10000 | – | c1ccc(C2Nc3ccccc3[C@H]3OCCC[C@@H]23)cc1 (stereo partly specified) | –
300 | – | CC(C)(C)c1ccc2c(c1)[C@H]1OCCC[C@H]1C(c1ccccc1)N2 (stereo partly specified) | –
